From the supplement of paper PMC8612539

Tests used:
Mannheimia haemolytica = assay: minimum inhibitory concentration (MIC)
Procedure: (§1)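 Broth microdilution MIC (Sensititre BOPO7F bovine plate, CLSI methods) of 19 antimicrobials against field isolates of P. multocida, M. haemolytica, H. somni (deep nasopharyngeal swabs) and E. coli, Enterococcus spp. (rectal swabs) from weaned dairy heifers. Incubation 16-24 h at 35 C. MIC is the lowest concentration preventing visible growth. Values with <= or > lie at the tested range limits. Trimethoprim-sulfamethoxazole is given as the trimethoprim component of a 1:19 mixture.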

Enterococcus spp. = assay: minimum inhibitory concentration (MIC)
Procedure: as §1

[1] = isolate (source animal id): 122
[2] = isolate (source animal id): 123
[3] = isolate (source animal id): 133
[4] = isolate (source animal id): 171
[5] = isolate (source animal id): 183
[6] = isolate (source animal id): 187
[7] = isolate (source animal id): 190
[8] = isolate (source animal id): 211
[9] = isolate (source animal id): 223
[10] = isolate (source animal id): 241
[11] = isolate (source animal id): 252
[12] = isolate (source animal id): 282
[13] = isolate (source animal id): 298
[14] = isolate (source animal id): 320
[15] = isolate (source animal id): 333

Measured: minimum inhibitory concentration

CC1(C)S[C@@H]2[C@H](NC(=O)[C@H](N)c3ccccc3)C(=O)N2[C@H]1C(=O)O [Ampicillin]
2 µg/mL: Enterococcus spp.; isolate (source animal id): 182 | Enterococcus spp.; [6] | Enterococcus spp.; [7] | Enterococcus spp.; isolate (source animal id): 230 | Enterococcus spp.; [10] | Enterococcus spp.; isolate (source animal id): 247
0.5 µg/mL: Mannheimia haemolytica; [2] | Enterococcus spp.; isolate (source animal id): 92 | Enterococcus spp.; [3] | Enterococcus spp.; [4] | Enterococcus spp.; isolate (source animal id): 194 | Enterococcus spp.; isolate (source animal id): 197 | Enterococcus spp.; isolate (source animal id): 214 | Enterococcus spp.; isolate (source animal id): 222 | Enterococcus spp.; [9] | Enterococcus spp.; isolate (source animal id): 236 | Enterococcus spp.; isolate (source animal id): 239 | Enterococcus spp.; isolate (source animal id): 244 | Enterococcus spp.; isolate (source animal id): 250 | Enterococcus spp.; isolate (source animal id): 341
> 16 µg/mL: Mannheimia haemolytica; isolate (source animal id): 28 | Mannheimia haemolytica; isolate (source animal id): 31 | Mannheimia haemolytica; isolate (source animal id): 50 | Mannheimia haemolytica; isolate (source animal id): 121 | Mannheimia haemolytica; isolate (source animal id): 126 | Mannheimia haemolytica; isolate (source animal id): 138 | Mannheimia haemolytica; isolate (source animal id): 170 | Mannheimia haemolytica; isolate (source animal id): 172 | Mannheimia haemolytica; isolate (source animal id): 173 | Mannheimia haemolytica; isolate (source animal id): 179 | Mannheimia haemolytica; isolate (source animal id): 180 | Mannheimia haemolytica; [5] | Mannheimia haemolytica; isolate (source animal id): 186 | Mannheimia haemolytica; [6] | Mannheimia haemolytica; isolate (source animal id): 188 | Mannheimia haemolytica; isolate (source animal id): 191 | Mannheimia haemolytica; isolate (source animal id): 201 | Mannheimia haemolytica; isolate (source animal id): 202 | Mannheimia haemolytica; isolate (source animal id): 209 | Mannheimia haemolytica; [8] | Mannheimia haemolytica; isolate (source animal id): 220 | Mannheimia haemolytica; [9] | Mannheimia haemolytica; isolate (source animal id): 233 | Mannheimia haemolytica; [10] | Mannheimia haemolytica; isolate (source animal id): 262 | Mannheimia haemolytica; [12]
16 µg/mL: Mannheimia haemolytica; isolate (source animal id): 159 | Mannheimia haemolytica; isolate (source animal id): 221 | Mannheimia haemolytica; isolate (source animal id): 259
≤ 0.25 µg/mL: Mannheimia haemolytica; isolate (source animal id): 8 | Mannheimia haemolytica; isolate (source animal id): 13 | Mannheimia haemolytica; isolate (source animal id): 18 | Mannheimia haemolytica; isolate (source animal id): 21 | Mannheimia haemolytica; isolate (source animal id): 25 | Mannheimia haemolytica; isolate (source animal id): 27 | Mannheimia haemolytica; isolate (source animal id): 30 | Mannheimia haemolytica; isolate (source animal id): 32 | Mannheimia haemolytica; isolate (source animal id): 34 | Mannheimia haemolytica; isolate (source animal id): 36 | Mannheimia haemolytica; isolate (source animal id): 37 | Mannheimia haemolytica; isolate (source animal id): 40 | Mannheimia haemolytica; isolate (source animal id): 41 | Mannheimia haemolytica; isolate (source animal id): 43 | Mannheimia haemolytica; isolate (source animal id): 46 | Mannheimia haemolytica; isolate (source animal id): 49 | Mannheimia haemolytica; isolate (source animal id): 51 | Mannheimia haemolytica; isolate (source animal id): 52 | Mannheimia haemolytica; isolate (source animal id): 53 | Mannheimia haemolytica; isolate (source animal id): 55 | Mannheimia haemolytica; isolate (source animal id): 56 | Mannheimia haemolytica; isolate (source animal id): 57 | Mannheimia haemolytica; isolate (source animal id): 100 | Mannheimia haemolytica; isolate (source animal id): 103 | Mannheimia haemolytica; isolate (source animal id): 107 | Mannheimia haemolytica; isolate (source animal id): 108 | Mannheimia haemolytica; isolate (source animal id): 112 | Mannheimia haemolytica; isolate (source animal id): 113 | Mannheimia haemolytica; [1] | Mannheimia haemolytica; [3] | Mannheimia haemolytica; isolate (source animal id): 135 | Mannheimia haemolytica; isolate (source animal id): 141 | Mannheimia haemolytica; isolate (source animal id): 142 | Mannheimia haemolytica; isolate (source animal id): 145 | Mannheimia haemolytica; isolate (source animal id): 149 | Mannheimia haemolytica; isolate (source animal id): 151 | Mannheimia haemolytica; isolate (source animal id): 152 | Mannheimia haemolytica; isolate (source animal id): 154 | Mannheimia haemolytica; [4] | Mannheimia haemolytica; [7] | Mannheimia haemolytica; isolate (source animal id): 192 | Mannheimia haemolytica; isolate (source animal id): 237 | Mannheimia haemolytica; [11] | Mannheimia haemolytica; isolate (source animal id): 253 | Mannheimia haemolytica; isolate (source animal id): 260 | Mannheimia haemolytica; isolate (source animal id): 287 | Mannheimia haemolytica; isolate (source animal id): 288 | Mannheimia haemolytica; isolate (source animal id): 291 | Mannheimia haemolytica; isolate (source animal id): 293 | Mannheimia haemolytica; [13] | Mannheimia haemolytica; isolate (source animal id): 299 | Mannheimia haemolytica; isolate (source animal id): 300 | Mannheimia haemolytica; isolate (source animal id): 302 | Mannheimia haemolytica; isolate (source animal id): 304 | Mannheimia haemolytica; isolate (source animal id): 306 | Mannheimia haemolytica; isolate (source animal id): 308 | Mannheimia haemolytica; isolate (source animal id): 309 | Mannheimia haemolytica; isolate (source animal id): 313 | Mannheimia haemolytica; isolate (source animal id): 318 | Mannheimia haemolytica; [14] | Mannheimia haemolytica; isolate (source animal id): 321 | Mannheimia haemolytica; isolate (source animal id): 323 | Mannheimia haemolytica; isolate (source animal id): 324 | Mannheimia haemolytica; isolate (source animal id): 326 | Mannheimia haemolytica; isolate (source animal id): 328 | Mannheimia haemolytica; isolate (source animal id): 329 | Mannheimia haemolytica; [15] | Mannheimia haemolytica; isolate (source animal id): 335 | Mannheimia haemolytica; isolate (source animal id): 338 | Enterococcus spp.; isolate (source animal id): 2 | Enterococcus spp.; isolate (source animal id): 88 | Enterococcus spp.; isolate (source animal id): 91 | Enterococcus spp.; isolate (source animal id): 111 | Enterococcus spp.; isolate (source animal id): 268 | Enterococcus spp.; isolate (source animal id): 289 | Enterococcus spp.; isolate (source animal id): 290 | Enterococcus spp.; isolate (source animal id): 296 | Enterococcus spp.; [13] | Enterococcus spp.; isolate (source animal id): 301 | Enterococcus spp.; [14] | Enterococcus spp.; isolate (source animal id): 331 | Enterococcus spp.; [15]
1 µg/mL: Enterococcus spp.; isolate (source animal id): 35 | Enterococcus spp.; isolate (source animal id): 42 | Enterococcus spp.; isolate (source animal id): 44 | Enterococcus spp.; isolate (source animal id): 79 | Enterococcus spp.; [1] | Enterococcus spp.; [2] | Enterococcus spp.; isolate (source animal id): 158 | Enterococcus spp.; isolate (source animal id): 168 | Enterococcus spp.; isolate (source animal id): 169 | Enterococcus spp.; isolate (source animal id): 175 | Enterococcus spp.; isolate (source animal id): 177 | Enterococcus spp.; isolate (source animal id): 181 | Enterococcus spp.; [5] | Enterococcus spp.; isolate (source animal id): 195 | Enterococcus spp.; [8] | Enterococcus spp.; isolate (source animal id): 228 | Enterococcus spp.; isolate (source animal id): 235 | Enterococcus spp.; isolate (source animal id): 246 | Enterococcus spp.; [11] | Enterococcus spp.; [12] | Enterococcus spp.; isolate (source animal id): 285 | Enterococcus spp.; isolate (source animal id): 310
8 µg/mL: Mannheimia haemolytica; isolate (source animal id): 162
